Test results: patent US20240197687A1, “METHODS OF TREATING NEUROINFLAMMATION AND INHIBITING MONOAMINE OXIDASE-A AND RESTORING/UPREGULATING/INCREASING IL-13 AND AND PGC-1 BY ADMINISTERING ORAL DOSAGE FORM CONTAINING MICRONIZED AND NONMICRONIZED PARTICULATE METAXALONE, ALGINIC ACID AND PROPYLENE GLYCOL ALGINATE” (Primus Pharmaceuticals, Inc., priority 2022, published 2024)

Tests used:
[1] = tested on: paclitaxel-induced neuropathic pain; details: via induction of the NRF-2/HO-1 signaling pathway in the spinal cord; cited from earlier work
HMC3 microglial cells = assay: MTT cell viability assay; details: 24, 48 and 72 h, metaxalone 10, 20, 40 μg/mL, staurosporine 100 nM positive control
FM fibroblasts = details: AMPK activation; cited from earlier work
PINP rats = details: cited from earlier work
[2] = tested on: rat model of ischemia-reperfusion injury; details: cited from earlier work
CCI mice = details: cited from earlier work
RIM rats = details: melatonin supplementation, gastrocnemius muscle; cited from earlier work
[3] = tested on: rat periodontal disease model; details: MAO up-regulation triggered by LPS; cited from earlier work

Cc1c(-c2cnccn2)ssc1=S [oltipraz]
paclitaxel-induced neuropathic pain [1]: significantly attenuate

CN[C@@H]1C[C@H]2O[C@@](C)([C@@H]1OC)n1c3ccccc3c3c4c(c5c6ccccc6n2c5c31)C(=O)NC4 [staurosporine]
cell viability (MTT) (HMC3 microglial cells): significant reduction in cell viability

CN(C)C(=N)N=C(N)N [metformin]
response to moderate oxidative stress and mitochondrial metabolism (FM fibroblasts): improved

Cc1ccc(CN(CC(O)COc2cccc3[nH]ccc23)C(C)(C)C)cc1 (stereo not drawn) [SR-18292]
analgesic effect of formoterol against PINP in presence of PGC-1α inhibitor (PINP rats; PINP rats): partially abolished

COc1ccc(CC(C)NCC(O)c2ccc(O)c(NC=O)c2)cc1 (stereo not drawn) [formoterol]
ADRB2 expression, mtDNA copy number and PGC-1α, NRF-1, TFAM protein expression (PINP rats; spinal cord of PINP rats): restored

O=C(NCCN1CCOCC1)c1ccc(Cl)cc1 [moclobemide]
inflammatory process [2]: attenuate

CC1(C)CC[C@]2(NC(=O)C(C)(F)F)CC[C@]3(C)[C@H](C(=O)C=C4[C@@]5(C)C=C(C#N)C(=O)C(C)(C)[C@@H]5CC[C@]43C)[C@@H]2C1 [RTA-408]
mechanical allodynia (von Frey test) (CCI mice; CCI mice, dose-dependent): significantly reversed
thermal hyperalgesia (Hargreaves plantar test) (CCI mice; CCI mice, dose-dependent): significantly reversed
mitochondrial biogenesis (MB) (CCI mice; L4-6 spinal cord of CCI mice, NRF-2-dependent): significantly restored
activity of NRF-2 (CCI mice; L4-6 spinal cord of CCI mice): increased

COc1ccc2[nH]cc(CCNC(C)=O)c2c1 [melatonin]
studied parameters (PGC-1α, Mfn2, CoQ10), oxidative stress (RIM rats): significantly preserved all the studied parameters

NNCCc1ccccc1 [phenelzine]
oxidative stress [3]: significantly reduce
